Key:
[1] = system: DU145, NIH 3T3, SYF1, 22Rv1 cells; test: Encapsulation of Src family kinase variants into EVs of transduced cells (Western blot, EVs vs TCL); assay type: cell-based; settings: for levels of Fyn kinase in EVs: in comparison with Fyn(WT)
Method: The transfected cells were grown in exosome-free FBS medium and EVs were isolated from the conditioned medium. […] Ten μg of protein from EVs or TCL were loaded. Src protein levels were quantified by Image J software. […] Data were expressed as mean±SEM, ** p<0.01; *** p<0.001. […] The transduced cells were grown in EVs/exosome-free FBS medium with (Lane 4-6 and 10-12) or without (Lane 1-3 and 7-9) 50 μM myristic acid-azide (an analog of myristic acid). The myristoylated proteins from either EVs or TCL were detected using Click chemistry. Ten μg of protein from EVs or TCL were loaded.
EVs were isolated from conditioned medium by sequential ultracentrifugation. […] Ten μg of protein from EVs or TCL were loaded. […] Coomassie staining was used to show equivalent loading of samples. The Src expression level was quantified by Image J software. Data are expressed as mean±SEM, * p<0.05; ** p<0.01; *** p<0.001.
The transduced cells were grown in EVs/exosome-free medium for 24 h and EVs were isolated from the conditioned medium. Ten μg of protein from extracellular vesicles (EVs) or total cell lysates (TCL) were loaded. […] Data are expressed as mean±SEM. * p<0.05; **** p<0.0001; NS: Not significant.
The transduced cells were grown in exosome-free FBS medium. EVs were collected from the conditioned cell culture medium. Expression levels of Src in extracellular vesicles (EVs) and total cell lysates (TCL) from the transduced cells were evaluated by Western blotting. 10 μg of protein from Exo or TCL were loaded. […] The Src protein was quantified by Image J software. […] Data are expressed as mean±SEM. ** p<0.01.
To isolate EVs from the cell culture medium, the cell lines were grown in ATCC recommended medium in a 150-mm petri-dish. […] The size, zeta potential, and concentration of EVs were measured by nanoparticle tracking analysis (NTA, Particle Metrix, Germany) with ZetaView software for data record and analysis.
The total cell lysate and EVs dissolved in RIPA buffer were subjected to the standard immunoblotting analysis. […] The band intensity was quantified by Image J software.

full length NMT1 protein = molecular target: T1, full length NMT1 protein (Homo sapiens, UniProt P30419); test: NMT1 activity assay (CoA release, fluorescence); assay type: biochemical; settings: octapeptide as NMT1 substrate;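 note: released CoA from NMT1-catalysed myristoylation of octapeptide substrates detected by fluorescence after reaction with a maleimide coumarin dye (excitation 390 nm, emission 479 nm), triplicate points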
T1 construct: Km and Vmax catalyzed by full length NMT1 protein were calculated
T1 sequence (P30419 1-496): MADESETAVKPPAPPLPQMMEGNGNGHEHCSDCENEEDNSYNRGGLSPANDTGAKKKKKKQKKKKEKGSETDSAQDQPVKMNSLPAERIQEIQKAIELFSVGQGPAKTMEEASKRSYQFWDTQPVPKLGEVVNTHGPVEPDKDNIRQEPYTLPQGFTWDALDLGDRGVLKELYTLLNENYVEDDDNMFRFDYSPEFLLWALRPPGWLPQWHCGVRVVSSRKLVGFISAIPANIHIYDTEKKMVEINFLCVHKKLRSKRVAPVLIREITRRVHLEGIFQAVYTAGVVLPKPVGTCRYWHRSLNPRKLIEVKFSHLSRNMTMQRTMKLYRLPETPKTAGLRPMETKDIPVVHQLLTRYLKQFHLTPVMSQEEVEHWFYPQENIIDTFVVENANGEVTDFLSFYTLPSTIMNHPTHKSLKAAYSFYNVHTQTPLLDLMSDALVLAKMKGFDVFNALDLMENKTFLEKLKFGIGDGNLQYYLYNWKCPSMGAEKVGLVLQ
Method: The amount of the released CoA were reacted with 7-diethylamino-3-(4′-maleimidylphenyl)-4-methylcoumarin. The assay was performed in 96-well black microplates. The produced fluorescence intensity was measured by Flex Station 3, and detected by microplate reader (excitation at 390 nm; emission at 479 nm).
The amount of the released CoA were reacted with 7-diethylamino-3-(4′-maleimidylphenyl)-4-methylcoumarin. The assay was performed in 96-well black microplates. The produced fluorescence intensity was measured by Flex Station 3, and detected by microplate reader (excitation at 390 nm; emission at 479 nm). To measure the Km and Vmax of NMT1 which catalyzed various octapeptides substrates derived from various proteins, twenty-five octapeptides were synthesized by GenScript. […] Each data point has three repeats.
Km and Vmax catalyzed by full length NMT1 protein were calculated.

PC3 or DU145 cells = test: Lipid raft disruption, Src kinase in EVs by immunoblotting; assay type: cell-based, human; settings: 0-1 μM, 24 h
Method: PC3 and DU145 cells were grown overnight. The medium was replaced with the same growth medium but containing EVs/exosome-free FBS with DMSO (control) or Filipin III (0-1 μM) for 24 h to disrupt lipid rafts. The EVs were isolated from the conditioned medium by sequential centrifugation as described above. The isolated EVs and cells were lysed with RIPA buffer for immunoblotting analysis.

PC3 cells = test: Lipid raft disruption, cholesterol staining; assay type: cell-based, human; settings: 1 μM, 24 h
Method: PC3 cells were treated with vehicle control or 1 μM Filipin for 24 h. The treated cells were visualized under a fluorescence microscope. The treated cells were stained with Filipin III and representative images were taken.

Row | Km (full length NMT1 protein) [µM] | Vmax (full length NMT1 protein) [µM/min] | Compound | levels of Fyn kinase in EVs [1] | also measured
1 | – | – | Fyn(G2A): Fyn mutant with loss of myristoylation (ACVQCK) | significantly inhibited | –
2 | – | – | Fyn(WT): wild type Fyn kinase (GCVQCK) | – | levels of kinase in EVs in comparison with total cell lysate [1]: decreased
3 | 40 | 9.6 | GQSQSGGH (SEQ ID NO: 364) [PSMC1] | – | –
4 | 28.2 | 54.7 | GSCCSCPD (SEQ ID NO: 370) [FRS2] | – | –
5 | – | – | CCCCC[C@@H](O)[C@H]1C(=O)O[C@H](C)[C@@H](O)/C=C/C=C/C=C/C=C/C=C(\C)[C@@H](O)C[C@H](O)C[C@H](O)C[C@H](O)C[C@H](O)C[C@H](O)C[C@@H]1O [Filipin III] | – | expression levels of Src kinase in EVs (PC3 or DU145 cells): did not significantly change; cholesterol levels (PC3 cells): significantly decreased
6 | – | – | Fyn(C3S/C6S): Fyn mutant with loss of palmitoylation (GSVQSK) | significantly increased | –

Reference: patent publication US20220195455A1, “DELIVERY OF CRISPR/MCAS9 THROUGH EXTRACELLULAR VESICLES FOR GENOME EDITING” (University of Georgia Research Foundation, Inc., priority 2019, published 2022)
